Measurements reported in patent publication US20250387390A1, “METHODS FOR TREATING FIBROSIS USING PKM2 ACTIVATORS” (Proda Biotech L.L.C., priority 2020, published 2025).

What was measured:
NLF cells = test: LOX and LOXL2 expression in NLF cells under hypoxia (immunoblot, qPCR); type: cell-based; details: 10 μM, hypoxia 24 hours, vs DMSO
Method: (§1) Section (B) Relative band intensities were calculated for both LOX and LOXL2 using ImageJ.

LX2 cells [1] = test: LOX and LOXL2 expression in LX2 cells under hypoxia (immunoblot, qPCR); type: cell-based; details: 10 μM, hypoxia 24 hours, vs DMSO
Method: as §1

LX2 cells [2] = test: qRT-PCR of Col1A1, PHGDH, PSAT1, SHMT1, SHMT2 mRNA in LX2 cells after TGFβ; type: cell-based; details: following TGFβ treatment, vs DMSO, qRT-PCR fold change
Method: Cellular levels of mRNA of collagen (Col1A1), PHGDH, PSAT1, SHMT1, and SHMT2 in LX2 cells with DASA-10 (black bar) or DMSO (open bar) treatment following TGFβ treatment were analyzed by qRT-PCR. The cellular mRNA levels are presented as fold change by comparing controls. Error bars represent mean±S.E.M.

[3] = system: myocardial infarction (MI); test: Myocardial infarction by left ventricle ligation, cardiac fibrosis; type: in vivo; details: C57BL/6J mice, LV ligation 70 minutes, i.p. injection, vs vehicle
Method: C57BL/6J mice (n=6/group) were induced myocardial infarction (MI) by left ventricle ligation (LV). Sham are the mice underwent the same surgical procedure without LV. After 70 minutes, the LV was relieved. All mice were immediately treated with TEPP-46 or vehicle by i.p. injection. No treatment for the Sham mice. […] Scale bars, […]. […] The quantification is a mean value of randomly selected 4 fields from each section. Four sections were randomly selected from each mouse. The quantification is presented as blue staining Collagen Area (%). Error bars represent mean±S.E.M. * P<0.05, ** P<0.01, *** P<0.001, by unpaired two-tailed Student's t-test.

cerulein pancreatitis = test: Cerulein pancreatitis induction in mice with subsequent treatment; type: in vivo; details: cerulein-induced, vs vehicle
Method: Section (A) is schematic illustration of the schedule of cerulein (red arrows) pancreatitis induction and subsequent TEPP-46 treatments (green arrows). […] Quantification was calculated from measurements of 6 mice. Four randomly selected tissue sections per animal and three randomly selected view fields in each section were quantified. The quantity of collagen levels in Sirius red stain is presented as % of total area.

bleomycin lung fibrosis = test: Bleomycin lung fibrosis induction in mice with subsequent treatment; type: in vivo
Method: (§2) Sections (A) & (E) of FIG. 1 are schematic illustrations of the schedule of TAA/alcohol liver fibrosis (A) and bleomycin lung fibrosis (E) induction and subsequent TEPP-46 treatments. […] Sections (C) & (D) of FIG. 1 show quantitation of collagen levels in Sirius red (B) and Masson's trichrome (F) staining and a-SMA IF (B) and IHC (F) staining of fibrotic liver (B) and lung (F) using ImageJ software. Quantification was calculated from measurements of 10 mice. Four randomly selected tissue sections per animal and three randomly selected view fields in each section were quantified. The quantity of collagen levels in Sirius red or Masson's trichrome stain and α-SMA IF or IHC stain is presented as % of total area. […] Sections (G) & (H) show Quantitative analyses of Serine (G) and Glycine (H) levels in tissue extracts of liver and lung from mice treated with indicated agents by HPLC-ms. Serine and glycine levels are presented as relative abundance by defining the vehicle treated group as 100%. Error bars in Sections C, D, G, H represent mean±S.E.M

[4] = system: TAA/alcohol liver fibrosis; test: TAA/alcohol liver fibrosis induction in mice with subsequent treatment; type: in vivo
Method: as §2

O=S(=O)(c1ccc2c(c1)OCCO2)N1CCN(S(=O)(=O)c2c(F)cccc2F)CC1 [DASA-10]
LOX and LOXL2 expression (NLF cells): reduces LOX and LOXL2 expression
LOX and LOXL2 expression (LX2 cells [1]): reduces LOX and LOXL2 expression
metabolic enzymes involved in serine/glycine metabolism (mRNA of Col1A1, PHGDH, PSAT1, SHMT1, SHMT2) (LX2 cells [2]): decreases metabolic enzymes that are involved in serine/glycine metabolism

Cn1c2cc([S+](C)[O-])sc2c2cnn(Cc3cccc(N)c3)c(=O)c21 (centres unmarked) [TEPP-46]
cardiac fibrosis after infarction (trichrome Collagen Area %) [3]: decreases cardiac fibrosis after infarction
pancreatitis (collagen in Sirius red staining, H&E of pancreas) (cerulein pancreatitis): reverse pancreatitis
lung fibrosis (collagen by Masson's trichrome, α-SMA IHC staining, % of total area) (bleomycin lung fibrosis; bleomycin lung fibrosis, mice, vs vehicle): reverses liver and lung fibrosis
serine/glycine metabolism (serine and glycine levels in tissue extracts by HPLC-ms) (bleomycin lung fibrosis; fibrotic lung, relative abundance, vehicle group = 100%): decreases serine/glycine metabolism
LOX expression in vivo (IHC LOX positive area, LOX activity) (bleomycin lung fibrosis; fibrotic lungs, bleomycin model): reduces LOX expression in vivo
liver fibrosis (collagen by Sirius red, α-SMA IF staining, % of total area) ([4]; TAA/alcohol liver fibrosis, mice, vs vehicle): reverses liver and lung fibrosis
LOX expression in vivo (IHC LOX positive area, LOX activity) ([4]; fibrotic liver, TAA/alcohol model): reduces LOX expression in vivo
serine/glycine metabolism (serine and glycine levels in tissue extracts by HPLC-ms) ([4]; fibrotic liver, relative abundance, vehicle group = 100%): decreases serine/glycine metabolism
